Assay results as given in patent publication US20230295152A1 (SENDA BIOSCIENCES, INC., priority 2019, published 2023).

Experiments:
[1] = Plasma Protein Binding with Ultracentrifugation Method, rat; type: in vitro ADME; details: for fraction unbound at 30 min, 1 μM: rat plasma, read-out: Rat plasma protein binding (% bound)
Method: The frozen plasma (stored at −80° C.) was thawed in a 37° C. water bath, followed by centrifugation at 3,220 g for 10 minutes to remove clots. The supernatant was removed into a new tube as the spun plasma. The spun plasma was pre-warmed in a 37° C. water bath for 10 minutes. The stock solutions of test compounds were diluted to 200 μM in DMSO, and then spiked into the plasma. Duplicate samples were prepared. The final concentration of compound was 1.0 μM. The final concentration of organic solvent was 0.5%. Warfarin was used as positive control in the assay. 1.0 mL of the spiked plasma was transferred to a new balance ultracentrifuge tube. Samples were incubated at 37° C., 5% CO2 for 30 minutes. After incubation, the balance ultracentrifuge tubes were centrifuged at 600,000 g for 5.5 hours at 37° C. After centrifugation, 50 μL solution was removed from the center of the ultracentrifuge tubes as the post-ultracentrifugation samples, followed by the addition of 50 μL blank plasma and 400 μL quench solution (acetonitrile containing internal standards (IS, 100 nM Alprazolam, 500 nM Labetalol and 2 μM Ketoprofen)) to precipitate protein and release compounds. Samples were vortexed for 2 minutes, followed by centrifugation at 20,000 g for 15 minutes at room temperature. The supernatant was diluted with ultrapure water and then used for LC-MS/MS analysis. Stability samples was prepared by transferring 50 μL of the spiked plasma to 0.6 mL tubes and incubated at 37° C., 5% CO2 for 0.5 and 6 hours. After incubation, 50 μL PBS (100 mM, pH7.4) and 400 μL quench solution were added to the stability samples. And then stability samples were treated the same way as the post-ultracentrifugation samples. The supernatant was diluted with ultrapure water and then used for LC-MS/MS analysis. 0.5 hour time point samples were also used as no-spun controls. Time 0 samples were prepared by transferring 50 μL spiked plasma to 0.6 mL tubes containing 50 μL PBS, followed by the addition of 400 μL quench solution to precipitate protein and release compound. And then these samples were treated the same way as the post-ultracentrifugation samples. The supernatant was diluted with ultrapure water and then used for LC-MS/MS analysis.
Data Analysis: All calculations were carried out using Microsoft Excel. The concentrations of test compound in plasma samples and post-ultracentrifugation plasma was determined from peak areas. The percentages of test compound bound was calculated as follows: […]
“+++” indicates a % bound value less than 50, “++” indicates a % bound value between 50 and 75, and “+” indicates a % bound value above 75.

[2] = In vivo PK study in male Sprague Dawley rats; details: for AUC(0-inf): read-out: AUCInf Mean; for AUC(0-t): read-out: AUCLast Mean
Method: (§1) The studies were conducted in male Sprague Dawley rats, three rats per group, or male CD1 mice, three mice per group. Compounds were dosed 1.0 mg/Kg i.v. (vehicle ethanol: % PEG400 in deionized water, in proportions suitable for dosing a clear solution) and 3.0 mg/kg or 10 mg/kg p.o. (vehicle: 1% methyl cellulose: 1,500 cP in DI water (w/v)). A11 animals had free access to food and water. Rat i.v. PK time points: Plasma: 0.083, 0.25, 0.5, 1, 2, 4, 8 and 24 h; Rat p.o. PK time points: Plasma: 0.25, 0.5, 1, 2, 4, 8 and 24 h. Mouse i.v. PK time points: Plasma: 0.083, 0.25, 0.5, 1, 2, 4, 8, 24, and 48 h; Mouse p.o. PK time points: Plasma: 0.25, 0.5, 1, 2, 4, 8, 24, and 48 h. Concentrations of compound in the plasma samples were analyzed using a LC-MS/MS method. WinNonlin (Phoenix™, version 6.1) or other similar software was used for pharmacokinetic calculations.

[3] = In vivo PK study in male CD1 mice; details: for AUC(0-t): read-out: AUCLast Mean; for AUC(0-inf): read-out: AUCInf Mean
Method: as §1

[4] = male, Sprague Dawley, rat, plasma, rats, 1 mg/kg IV
[5] = male, Sprague Dawley, rat, plasma, rats, 1 mg/kg IV, read-out: T1/2 Mean (converted)
[6] = male, Sprague Dawley, rat, plasma, rats, PO, dosage of 3 mg/kg
[7] = male, Sprague Dawley, rat, plasma, rats, PO, dosage of 3 mg/kg, read-out: Bioavailability
[8] = male, Sprague Dawley, rat, plasma, rats, PO, dosage of 10 mg/kg
[9] = male, CD1, mouse, plasma, mice, 1 mg/kg IV
[10] = male, CD1, mouse, plasma, mice, 1 mg/kg IV, read-out: T1/2 Mean (converted)
[11] = male, CD1, mouse, plasma, mice, 10 mg/kg PO
[12] = male, CD1, mouse, plasma, mice, 10 mg/kg PO, read-out: Bioavailability
[13] = male, CD1, mouse, plasma, mice, 10 mg/kg PO, read-out: T1/2 Mean (converted)

| C0 [2, 4] [ng/mL] | AUC(0-inf) [2, 4] [ng·h/mL] | AUC(0-t) [2, 4] [ng·h/mL] | half-life [2, 5] [h] | Cmax [2, 6] [ng/mL] | Tmax [2, 6] [h] | AUC(0-t) [2, 6] [ng·h/mL] | bioavailability [2, 7] [%] | CI Mean ([2]; rats, 1 mg/kg IV) [mL/min/kg] | AUC(0-t) [3, 9] [ng·h/mL] | half-life [3, 10] [h] | Cmax [3, 11] [ng/mL] | Tmax [3, 11] [h] | bioavailability [3, 12] [%] | CI Mean ([3]; mice, 1 mg/kg IV) [mL/min/kg] | C0 [3, 9] [ng/mL] | AUC(0-t) [3, 11] [ng·h/mL] | half-life [3, 13] [h] | SMILES | fraction unbound at 30 min, 1 μM [1] | further results |
| --- | --- | --- | --- | --- | --- | --- | --- | --- | --- | --- | --- | --- | --- | --- | --- | --- | --- | --- | --- | --- |
| – | – | – | – | – | – | – | – | – | 231 | 0.504 | 349 | 0.417 | 21.6 | 1200 | 601 | 497 | 1.15 | Cc1ccc(-c2cc3c(=O)n([C@@H](C)CO)cnc3c(-c3cccnc3)n2)cc1 [Compound 17, (S)-3-(1-hydroxypropan-2-yl)-8-(pyridin-3-yl)-6-(p-tolyl)pyrido[3,4-d]pyrimidin-4(3H)-one] | – | AUC(0-inf) [3, 11]: 519 ng·h/mL |
| – | – | – | – | – | – | – | – | – | 6770 | 20.7 | 1310 | 6.67 | 67.6 | 33.7 | 333 | 45800 | 23.4 | CC(C)(O)Cn1cnc2c(-c3cccnc3)nc(-c3ccc(Cl)cc3)cc2c1=O [Compound 18] | – | – |
| 425 | 3050 | 2910 | 5.61 | 152 | 5.33 | 2430 | 27.9 | 91.3 | 6520 | 11.8 | 1120 | 8 | 45.7 | 40.3 | 350 | 29800 | – | Cn1cc(-c2nc(-c3ccc(C(F)(F)F)nc3)cc3c(=O)n(CC(C)(C)O)cnc23)cn1 [Compound 60] | – | – |
| 663 | 1220 | 1200 | 1.38 | 508 | 1 | 2270 | 65.9 | 228 | – | – | – | – | – | – | – | – | – | O=c1c2cc(-c3ccc(C(F)(F)F)nc3)nc(-c3cccnc3)c2ncn1[C@@H]1COC[C@H]1O [Compound 79] | – | AUC(0-inf) [2, 6]: 2420 ng·h/mL; half-life ([2]; male, Sprague Dawley, rat, plasma, rats, PO, dosage of 3 mg/kg, read-out: T1/2 Mean (converted)): 2.53 h |
| 199 | 12300 | 2790 | 63 | 40.2 | 8 | 794 | 9.49 | 26 | 10400 | 69.5 | 152 | 13.3 | 5.82 | 10.7 | 349 | 6060 | – | Cn1cc(-c2nc(-c3ccc(C(F)(F)F)cn3)cc3c(=O)n(CC(C)(C)O)cnc23)cn1 [Compound 103, 3-(2-hydroxy-2-methylpropyl)-8-(1-methyl-1H-pyrazol-4-yl)-6-(5-(trifluoromethyl)pyridin-2-yl)pyrido[3,4-d]pyrimidin-4(3H)-one] | – | – |
| 411 | 9520 | 4410 | 27.1 | 592 | 6.67 | 11900 | 90.2 | 29.5 | 11300 | 55.9 | 2350 | 12 | 85 | 11.4 | 412 | 96100 | 48.5 | CC(C)(O)Cn1cnc2c(-c3cccnc3)nc(-c3ccc(C(F)(F)F)cn3)cc2c1=O [Compound 105] | – | – |

| SMILES | C0 [2, 4] [ng/mL] | AUC(0-inf) [2, 4] [ng·h/mL] | AUC(0-t) [2, 4] [ng·h/mL] | half-life [2, 5] [h] | Cmax [2, 6] [ng/mL] | Tmax [2, 6] [h] | AUC(0-t) [2, 6] [ng·h/mL] | bioavailability [2, 7] [%] | CI Mean ([2]; rats, 1 mg/kg IV) [mL/min/kg] | AUC(0-t) [3, 9] [ng·h/mL] | half-life [3, 10] [h] | Cmax [3, 11] [ng/mL] | Tmax [3, 11] [h] | bioavailability [3, 12] [%] | CI Mean ([3]; mice, 1 mg/kg IV) [mL/min/kg] | C0 [3, 9] [ng/mL] | AUC(0-t) [3, 11] [ng·h/mL] | half-life [3, 13] [h] | fraction unbound at 30 min, 1 μM [1] | further results |
| --- | --- | --- | --- | --- | --- | --- | --- | --- | --- | --- | --- | --- | --- | --- | --- | --- | --- | --- | --- | --- |
| C[C@@H](CO)n1cnc2c(-c3cccc(F)c3)nc(-c3ccc(Cl)cc3)cc2c1=O [Compound 7] | 212 | 1000 | 659 | 5.31 | 224 | 3.33 | 2400 | 110 | 295 | – | – | – | – | – | – | – | – | – | < 0.25 | Cmax [2, 8]: 610 ng/mL; Tmax [2, 8]: 3.33 h; AUC(0-t) [2, 8]: 7820 ng·h/mL; bioavailability ([2]; male, Sprague Dawley, rat, plasma, rats, PO, dosage of 10 mg/kg, read-out: Bioavailability): 105% |
| CC(C)(O)Cn1cnc2c(-c3cccnc3)nc(-c3ccc(C(F)(F)F)nc3)cc2c1=O [Compound 9] | – | – | – | – | – | – | – | – | – | 4880 | 5.37 | 1470 | 5.67 | 70.3 | 57 | – | – | – | < 0.25 | fraction unbound at 5.5 h, 1 μM ([1]; rat, plasma, read-out: Plasma Protein Binding PPB (r) % (converted)): 0.098; Rat CL (% Qh) ([2]; in vivo DMPK profile, rat): 5.8 % Qh; clearance ([2]; male, Sprague Dawley, plasma, intravenous, 1 mg/kg, in vivo DMPK profile, rat, read-out: Rat CL): 4.1 mL/min/kg; half-life ([2]; male, Sprague Dawley, plasma, intravenous, 1 mg/kg, in vivo DMPK profile, rat, read-out: Rat T1/2 (converted)): 5.4 h; Vd ([2]; male, Sprague Dawley, plasma, intravenous, 1 mg/kg, in vivo DMPK profile, rat, read-out: Rat Vss): 1.75 L/kg; bioavailability ([2]; male, Sprague Dawley, plasma, oral, 3 mg/kg, in vivo DMPK profile, rat, read-out: Rat % F): 77%; Mouse CL (% Qh) ([3]; in vivo DMPK profile, mouse): 3.85 % Qh; AUC(0-inf) [3, 11]: 34200 ng·h/mL; clearance ([3]; male, CD1, plasma, intravenous, 1 mg/kg, in vivo DMPK profile, mouse, read-out: Mouse CL): 3.4 mL/min/kg; half-life ([3]; male, CD1, plasma, intravenous, 1 mg/kg, in vivo DMPK profile, mouse, read-out: Mouse T1/2 (converted)): 5.4 h; Vd ([3]; male, CD1, plasma, intravenous, 1 mg/kg, in vivo DMPK profile, mouse, read-out: Mouse Vss): 1.9 L/kg; bioavailability ([3]; male, CD1, plasma, oral, 10 mg/kg, in vivo DMPK profile, mouse, read-out: Mouse % F): 70.3% |
| C[C@H](n1cnc2c(-c3cnn(C)c3)nc(-c3ccc(Cl)cc3)cc2c1=O)C(C)(C)O [Compound 30] | 311 | 2030 | 2010 | 3.62 | 276 | 3.33 | 3250 | 53.9 | 143 | 6380 | 8.6 | 2160 | 8 | 114 | 43.3 | 457 | 72800 | – | < 0.25 | – |
